The text below walks through data of ChEMBL document CHEMBL5223124, “Recent applications of covalent chemistries in protein-protein interaction inhibitors” (RSC Med Chem, 2022).

Chain of Induced myeloid leukemia cell differentiation protein Mcl-1 (Q07820 whole entry): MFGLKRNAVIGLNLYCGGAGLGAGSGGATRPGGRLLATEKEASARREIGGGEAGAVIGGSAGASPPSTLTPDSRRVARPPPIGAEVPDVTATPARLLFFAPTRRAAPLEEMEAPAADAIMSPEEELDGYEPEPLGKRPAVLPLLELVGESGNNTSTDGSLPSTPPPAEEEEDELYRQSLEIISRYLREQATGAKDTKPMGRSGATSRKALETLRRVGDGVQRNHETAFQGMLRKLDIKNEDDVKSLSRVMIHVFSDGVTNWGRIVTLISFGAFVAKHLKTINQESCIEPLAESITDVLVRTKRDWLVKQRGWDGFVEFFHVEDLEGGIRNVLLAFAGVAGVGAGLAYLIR
Chain of E3 ubiquitin-protein ligase Mdm2 (Q00987 whole entry): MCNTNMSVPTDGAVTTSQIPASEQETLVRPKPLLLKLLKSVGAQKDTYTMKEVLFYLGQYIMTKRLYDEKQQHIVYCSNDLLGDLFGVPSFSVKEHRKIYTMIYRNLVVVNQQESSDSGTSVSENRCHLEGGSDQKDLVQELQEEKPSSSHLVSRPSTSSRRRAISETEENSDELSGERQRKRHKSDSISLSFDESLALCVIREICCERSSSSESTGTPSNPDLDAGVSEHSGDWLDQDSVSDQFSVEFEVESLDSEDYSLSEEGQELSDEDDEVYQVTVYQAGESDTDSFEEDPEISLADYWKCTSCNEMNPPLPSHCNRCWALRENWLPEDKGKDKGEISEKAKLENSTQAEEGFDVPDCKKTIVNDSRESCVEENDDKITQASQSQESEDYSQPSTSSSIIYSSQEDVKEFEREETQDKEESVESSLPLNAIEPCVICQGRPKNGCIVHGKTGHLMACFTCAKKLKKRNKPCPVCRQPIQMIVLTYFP

The first assay concerns the target E3 ubiquitin-protein ligase Mdm2 (Homo sapiens, UniProt Q00987). In words: Binding affinity to HDM2 (unknown origin).
Take `COc1ccc(C2=NC(c3ccc(Cl)cc3)C(c3ccc(Cl)cc3)N2C(=O)N2CCN(C(=O)CCCNC(=O)CCCC(=O)N(CC#N)S(=O)(=O)c3ccccc3)CC2)c(OC(C)C)c1` (centres undefined): the affinity, expressed as Kd, was 570 nM.

Another assay has as its target Induced myeloid leukemia cell differentiation protein Mcl-1 (Homo sapiens, UniProt Q07820). Nature of the assay: Inhibition of MCL-1 in human MOLP8 cells assessed as increase in caspase 3/7 activation. The assay is classed as cell-based.
`Cc1c(-c2cccc3c(CCCOc4cccc5ccccc45)c(C(=O)O)[nH]c23)c(COc2ccccc2)nn1C`: the EC50 was over 11000 nM.
Still for that read-out and setting: under `CCc1nn(C)c(CC)c1-c1cccc2c(CCCOc3cccc4ccccc34)c(C(=O)O)n(CCN3CCOCC3)c12` stands 340 nM.
For `CC(=O)c1cc(OCc2nn(C)c(C)c2-c2cccc3c(CCCOc4cccc5ccccc45)c(C(=O)O)[nH]c23)ccc1B(O)O`, the EC50 was 1170 nM.
Turning to `Cc1c(-c2cccc3c(CCCOc4cccc5ccccc45)c(C(=O)O)[nH]c23)c(COc2ccc(B(O)O)cc2)nn1C`, the EC50 is over 11000 nM.
For the compound `CC(=O)c1cccc(OCc2nn(C)c(C)c2-c2cccc3c(CCCOc4cccc5ccccc45)c(C(=O)O)[nH]c23)c1`, the EC50 came out at 2700 nM.
On the same count and under the same terms, with `Cc1c(-c2cccc3c(CCCOc4cccc5ccccc45)c(C(=O)O)[nH]c23)c(COc2ccc(B(O)O)c(C=O)c2)nn1C` the figure was 460 nM; with `Cc1c(-c2cccc3c(CCCOc4cccc5ccccc45)c(C(=O)O)n(C)c23)c(COc2ccc(B(O)O)c(C=O)c2)nn1C`, 75 nM.
Still for that read-out and setting: with `Cc1c(-c2cccc3c(CCCOc4cccc5ccccc45)c(C(=O)O)[nH]c23)c(COc2cccc(C=O)c2)nn1C` the figure was over 11000 nM.

Usually Kd stands for the concentration at which binding is half-saturated. Low values mean higher affinity, high ones lower affinity. In general, EC50 refers to the midpoint of the concentration-response curve.
